Laboratory results taken from paper PMC5268466, “Monofluorophosphate Blocks Internal Polysaccharide Synthesis in Streptococcus mutans” (PLoS ONE, 2017).

Molecular target: T1, S. mutans ADP-Glc PPase (GlgC/GlgD) (Streptococcus mutans, UniProt M9TIK1)
T1 sequence (M9TIK1 1-381): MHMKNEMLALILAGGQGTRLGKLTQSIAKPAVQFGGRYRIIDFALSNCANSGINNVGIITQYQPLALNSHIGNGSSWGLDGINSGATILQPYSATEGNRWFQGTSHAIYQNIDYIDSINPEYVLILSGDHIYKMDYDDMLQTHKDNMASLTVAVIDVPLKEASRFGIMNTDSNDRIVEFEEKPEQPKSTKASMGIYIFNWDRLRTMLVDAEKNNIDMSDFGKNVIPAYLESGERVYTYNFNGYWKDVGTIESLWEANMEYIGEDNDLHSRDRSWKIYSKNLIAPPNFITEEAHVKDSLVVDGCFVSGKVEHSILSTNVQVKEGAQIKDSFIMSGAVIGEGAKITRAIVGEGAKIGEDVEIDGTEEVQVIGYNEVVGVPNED
T1 sequence (M9TG57 1-377 partner): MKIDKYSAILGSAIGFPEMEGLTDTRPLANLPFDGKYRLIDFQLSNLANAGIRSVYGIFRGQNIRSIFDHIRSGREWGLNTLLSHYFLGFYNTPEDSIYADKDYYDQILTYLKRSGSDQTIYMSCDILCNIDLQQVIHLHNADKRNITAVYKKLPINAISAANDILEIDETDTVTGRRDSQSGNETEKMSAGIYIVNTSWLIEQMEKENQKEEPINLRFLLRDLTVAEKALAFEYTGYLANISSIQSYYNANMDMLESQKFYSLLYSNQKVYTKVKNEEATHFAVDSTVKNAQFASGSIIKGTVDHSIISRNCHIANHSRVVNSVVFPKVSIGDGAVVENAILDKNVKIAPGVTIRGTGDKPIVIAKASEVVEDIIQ
Details: 2500 µM, pH 8.0, 37 C, allosteric

In the case of `O=P(O)(O)O` [Pi, orthophosphate], the “No Fru-1,6-bisP / Activity (% remaining activity)” value is reported as 15 ± 2%.
